Read-outs that look alike come from different tables or passages of the source. One block for each compound: values may come before it.
Key:
[1] = target: KRas G12D/Q61H double mutant (Homo sapiens (Human), UniProt P01116, G12D/Q61H); assay: Ras GTP binding domain inhibition assay (labeled GTP)
Description: (§1) Buffer-I: • 50 mM Tris, pH 7.5 • 150 mM NaCl (optional) • 1 mM MgCl2 • 1 mM DTT. • KRas G12D mutant protein was expressed as a His-tagged protein. Purified His-KRas G12D protein was diluted in buffer-I to a final concentration of 3-10 μg/ml. • 200 μl of the diluted His-KRas G12D protein was added to a nickel coated 96 well plate and incubated overnight at 4° C. • The next day, wells were washed 3× in 200 μl of Buffer-I. • Then 200 μl of Buffer-I were added to each well in the presence of 1% DMSO. • Tested compounds were added to the protein-coated wells at a concentration of 20 μM, and incubated for 3 hours at room temperature. While performing IC50 measurements a serial dilution of all tested concentrations was prepared.
(§2) Then 22 μl of Cy3-GTP or Cy5-GTP was added to each well. The labeled GTP was incubated for 45 min. at room temperature. • Following GTP incubation, wells were washed 3× in Buffer-I, and 200 μl of Buffer-I were added to each well. • Following washes, the amount of bound labeled-GTP was measured with an Eppendorf AF2200 plate reader.
(§3) By substituting KRas G12D mutant protein with KRas G12C mutant, KRas wild type, KRas Q61H mutant, KRas G12D/Q61H double mutant or KRas G12C/Q61H double mutant under the assay conditions described above, KRas G12C mutant KRas wild type, KRas Q61H mutant, KRas G12D/Q61H double mutant and KRas G12C/Q61H double mutant inhibition, respectively, were each determined.

[2] = test system: TNFα production in RAW 264.7 macrophage cell line; assay: Mouse TNF alpha quantification assay (LPS-stimulated RAW 264.7, ELISA); type: cell-based; settings: RAW264.7, LPS-stimulated RAW 264.7 macrophage cell line, read-out: TNF-α % Inhibition at 30 μM
[3] = test system: IL6 production in RAW 264.7 macrophage cell line; assay: Mouse IL6 quantification assay (LPS-stimulated RAW 264.7, ELISA); type: cell-based; settings: RAW264.7, LPS-stimulated RAW 264.7 macrophage cell line, read-out: IL-6 % Inhibition at 30 μM
KRas G12D mutant protein = KRas G12D mutant protein (Homo sapiens (Human), UniProt P01116, G12D); assay: Ras GTP binding domain inhibition assay (labeled GTP)
Description: The following method was developed as specific assay for KRas G12D mutant protein.
as §1, §2

KRas G12C mutant = KRas G12C mutant (Homo sapiens (Human), UniProt P01116, G12C); assay: as above
Description: as §1, §2, §3

KRas wild type = KRas wild type (Homo sapiens (Human), UniProt P01116); assay: as above
Description: as §1, §2, §3

KRas Q61H mutant = KRas Q61H mutant (Homo sapiens (Human), UniProt P01116, Q61H); assay: as above
Description: as §1, §2, §3

[4] = target: KRas G12C/Q61H double mutant (Homo sapiens (Human), UniProt P01116, G12C/Q61H); assay: as above
Description: as §1, §2, §3

[5] = 20 μM compound, read-out: % Inhibition at 20 μM, KRas G12D Q61H
[6] = compound at 20 μM, read-out: % Inhibition at 20 μM, KRas G12D Q61H
[7] = 20 μM, read-out: KRas G12D Q61H % Inh.

Sequence of KRas G12D mutant protein (P01116-2 other isoform, or with tags, fused parts or gaps G12D): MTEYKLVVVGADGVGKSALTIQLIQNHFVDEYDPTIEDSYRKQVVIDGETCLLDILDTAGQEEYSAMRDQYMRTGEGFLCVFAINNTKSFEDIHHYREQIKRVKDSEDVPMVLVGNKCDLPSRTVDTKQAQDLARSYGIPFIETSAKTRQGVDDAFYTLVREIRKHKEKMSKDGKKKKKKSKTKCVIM
Sequence of KRas G12C mutant (P01116-2 other isoform, or with tags, fused parts or gaps G12C): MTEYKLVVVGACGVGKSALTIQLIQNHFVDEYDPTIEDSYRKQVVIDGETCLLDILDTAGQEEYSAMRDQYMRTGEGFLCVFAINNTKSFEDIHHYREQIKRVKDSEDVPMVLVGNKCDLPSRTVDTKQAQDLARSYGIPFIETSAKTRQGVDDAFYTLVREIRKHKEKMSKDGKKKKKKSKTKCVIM
Sequence of KRas G12D/Q61H double mutant (P01116-2 other isoform, or with tags, fused parts or gaps G12D/Q61H): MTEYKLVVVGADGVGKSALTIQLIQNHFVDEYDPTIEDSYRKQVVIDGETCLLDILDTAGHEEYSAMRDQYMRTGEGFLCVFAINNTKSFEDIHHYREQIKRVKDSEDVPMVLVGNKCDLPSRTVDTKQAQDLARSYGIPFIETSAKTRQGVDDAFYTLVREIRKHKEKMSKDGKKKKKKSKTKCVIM
Sequence of KRas wild type (P01116-2 other isoform, or with tags, fused parts or gaps): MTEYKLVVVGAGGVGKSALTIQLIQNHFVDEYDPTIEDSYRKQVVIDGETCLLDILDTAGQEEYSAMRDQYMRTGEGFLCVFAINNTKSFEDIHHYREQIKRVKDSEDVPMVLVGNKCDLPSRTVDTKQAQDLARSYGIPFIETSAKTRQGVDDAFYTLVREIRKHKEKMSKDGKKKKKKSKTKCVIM
Sequence of KRas Q61H mutant (P01116-2 other isoform, or with tags, fused parts or gaps Q61H): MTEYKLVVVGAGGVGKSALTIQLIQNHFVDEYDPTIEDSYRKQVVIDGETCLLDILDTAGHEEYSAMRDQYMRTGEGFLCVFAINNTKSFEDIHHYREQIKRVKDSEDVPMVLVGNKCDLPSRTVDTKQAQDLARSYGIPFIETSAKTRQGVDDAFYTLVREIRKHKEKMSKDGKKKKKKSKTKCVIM
Sequence of KRas G12C/Q61H double mutant (P01116-2 other isoform, or with tags, fused parts or gaps G12C/Q61H): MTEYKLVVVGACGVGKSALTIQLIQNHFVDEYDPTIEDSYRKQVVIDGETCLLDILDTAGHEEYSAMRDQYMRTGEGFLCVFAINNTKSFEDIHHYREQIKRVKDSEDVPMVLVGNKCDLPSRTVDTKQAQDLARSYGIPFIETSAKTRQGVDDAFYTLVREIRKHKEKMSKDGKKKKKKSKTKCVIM

inhibition at 20 µM [1, 6]: 25 to 50%
Structure (SMILES): COc1ccc(CCOC(=O)Nc2ccnc(-c3ccccn3)n2)cn1

inhibition at 20 µM (KRas G12D mutant protein; 20 μM compound): 25 to 50%
inhibition at 20 µM (KRas G12C mutant; 20 μM compound): 25 to 50%
inhibition at 20 µM (KRas wild type; 20 μM compound): 51 to 75%
Structure (SMILES): COCCNc1nc(-c2nccn2C)nc2sc(-c3ccccc3)c(-c3cccnc3)c12

inhibition at 20 µM [1, 6]: 25 to 50%
Structure (SMILES): Cc1sc2nc(-c3cnccn3)[nH]c(=O)c2c1-c1ccccc1

inhibition at 20 µM (KRas G12D mutant protein; compound at 20 μM): 51 to 75%
inhibition at 20 µM [1, 6]: 51 to 75%
inhibition at 20 µM (KRas G12C mutant; compound at 20 μM): 25 to 50%
inhibition at 20 µM (KRas wild type; compound at 20 μM): 76 to 100%
Structure (SMILES): O=C(c1csc2c(O)nc(-c3ccccn3)nc12)N1CCN(c2cccnc2)CC1

inhibition at 20 µM (KRas G12D mutant protein; 20 μM compound): 25 to 50%
inhibition at 20 µM (KRas Q61H mutant; 20 μM compound): 51 to 75%
inhibition at 20 µM [1, 5]: 51 to 75%
inhibition at 20 µM (KRas G12C mutant; 20 μM compound): 25 to 50%
inhibition at 20 µM ([4]; 20 μM compound): 51 to 75%
inhibition at 20 µM (KRas wild type; 20 μM compound): 25 to 50%
Structure (SMILES): CCC(C)c1csc2c(O)nc(-c3ccccn3)nc12 (stereo not shown) [drawing 3492]

inhibition at 20 µM (KRas G12D mutant protein; compound at 20 μM): 1 to 25%
inhibition at 20 µM (KRas Q61H mutant; compound at 20 μM): 51 to 75%
inhibition at 20 µM [1, 6]: 25 to 50%
inhibition at 20 µM (KRas G12C mutant; compound at 20 μM): 25 to 50%
inhibition at 20 µM ([4]; compound at 20 μM): 25 to 50%
inhibition at 20 µM (KRas wild type; compound at 20 μM): 1 to 25%
Structure (SMILES): Oc1nc(-c2ccccn2)nc2ccsc12

inhibition at 20 µM (KRas G12C mutant; compound at 20 μM): 1 to 25%
inhibition at 20 µM (KRas wild type; compound at 20 μM): 25 to 50%
Structure (SMILES): Cc1cc2nc(-c3ccccn3)nc(O)c2s1

% Inhibition at 20 μM, KRas G12C (KRas G12C mutant; 20 μM compound): B (B = 25-50% inhibition)
Structure (SMILES): Oc1nc(-c2ccccn2)nc(Oc2cccc(C(F)(F)F)c2)c1O

inhibition at 20 µM [1, 7]: 51 to 75%
Structure (SMILES): COc1ccccc1OCC(=O)Nc1nnc(-c2ccccn2)[nH]1 [drawing 2552]

inhibition at 20 µM [1, 5]: 1 to 25%
Structure (SMILES): CC(NC(=O)c1csc(-c2ccccc2)n1)c1ccccn1 (stereo not shown)

KRas G12D Q61H % Inh. ([1]; 20 μM): C (C = 51-75% inhibition)
Structure (SMILES): CS(=O)(=O)CCCC(=O)N1CCCc2c(O)nc(-c3ccccn3)nc21

The next lines start with the compound.

Structure (SMILES): CCOc1cc(CN(C(=O)CCc2nc(-c3ccsc3)no2)C2CC2)ccc1OC(F)F
inhibition at 20 µM [1, 5]: 25 to 50%

Structure (SMILES): COc1ccccc1OCC(=O)Nc1nnc(-c2ccccn2)[nH]1 [drawing 2004]
inhibition at 30 µM [2]: 0%
inhibition at 30 µM [3]: 26 to 50%

Structure (SMILES): COc1cc(CCNC(=O)c2csc3nc(-c4ccccn4)nc(N4CCOCC4)c23)ccn1
inhibition at 30 µM [2]: 0%
inhibition at 30 µM [3]: 1 to 25%

Structure (SMILES): N#Cc1ccc(C2CCCN2c2ccco2)cc1C(F)(F)F (stereo not shown)
inhibition at 20 µM [1, 6]: 1 to 25%

Structure (SMILES): Brc1csc2nc(-c3ccccn3)nc(Br)c12
inhibition at 30 µM [2]: 76 to 100%
inhibition at 30 µM [3]: 76 to 100%

Structure (SMILES): CN(C)Cc1cc(F)cc(-c2csc3c(O)nc(-c4ccccn4)nc23)c1
inhibition at 30 µM [2]: 51 to 75%
inhibition at 30 µM [3]: 76 to 100%

Structure (SMILES): Cc1ccc(OCc2nnc(SCC3CCCOC3)o2)cc1 (stereo not shown)
inhibition at 20 µM [1, 6]: 1 to 25%

Structure (SMILES): CCN(CC)S(=O)(=O)c1cc(C)c(C)c(NC(=O)CCc2c(C)cc(-c3ccccn3)nc2O)c1
inhibition at 20 µM [1, 7]: 51 to 75%

Structure (SMILES): O=C(NCCc1cnc(O)cn1)c1csc2nc(-c3ccccn3)nc(N3CCS(=O)(=O)CC3)c12
inhibition at 30 µM [2]: 0%
inhibition at 30 µM [3]: 51 to 75%

Structure (SMILES): CC(C)c1cnc(CN2CC(C)N(Cc3ncc(C(C)C)o3)c3ccccc32)o1 (stereo not shown)
inhibition at 20 µM [1, 5]: 25 to 50%

Structure (SMILES): CCC(C)c1csc2c(O)nc(-c3ccccn3)nc12 (stereo not shown) [drawing 2332]
inhibition at 30 µM [2]: 1 to 25%
inhibition at 30 µM [3]: 26 to 50%

Structure (SMILES): COc1cccc(-c2nc(C(=O)N3CCC(c4ccccc4)CC3)cs2)c1OC
inhibition at 20 µM [1, 5]: 25 to 50%

Structure (SMILES): O=C(c1csc2c(O)nc(-c3ccccn3)nc12)N1CCN(c2ccccc2)CC1
inhibition at 30 µM [2]: 51 to 75%
inhibition at 30 µM [3]: 76 to 100%

Structure (SMILES): OCC1(Cc2ccccc2)CCCN1c1nc(-c2ccccc2)nc2c1CCC2 (stereo not shown)
inhibition at 20 µM [1, 5]: 25 to 50%

Structure (SMILES): CC(C)COc1ccc(-c2csc3c(O)nc(-c4nccn4C)nc23)cn1
inhibition at 30 µM [2]: 76 to 100%
inhibition at 30 µM [3]: 76 to 100%

Structure (SMILES): CC(C)COc1ccc(-c2csc3c(O)nc(-c4ccccn4)nc23)nc1
inhibition at 30 µM [2]: 51 to 75%
inhibition at 30 µM [3]: 76 to 100%

Structure (SMILES): O=C(Nc1nc(-c2ccccn2)cs1)c1cccc(F)c1
inhibition at 30 µM [2]: 0%
inhibition at 30 µM [3]: 1 to 25%

Structure (SMILES): Nc1nc(-c2ccccn2)nc2scc(Br)c12
inhibition at 30 µM [2]: 0%
inhibition at 30 µM [3]: 1 to 25%

Structure (SMILES): COc1ccc(C(=O)Nc2nc(-c3ccccn3)cs2)cn1
inhibition at 30 µM [2]: 51 to 75%
inhibition at 30 µM [3]: 76 to 100%

Reference: patent publication US11000515B2, “Compounds that interact with the Ras superfamily for the treatment of cancers, inflammatory diseases, rasopathies, and fibrotic disease” (Shy Therapeutics LLC, priority 2017, dated 2021)
